Source: patent US20240150368A1, “ULK INHIBITORS AND METHODS OF USE THEREOF” (Deciphera Pharmaceuticals, LLC, priority 2022, published 2024)

Assays:
ULK2 kinase = biological target: T1, ULK2 kinase (Homo sapiens, UniProt Q8IYT8); assay: Biochemical assay for ULK2 (coupled pyruvate kinase/lactate dehydrogenase assay); settings: 1 mM ATP, 1 nM ULK2; read-out: ULK2 (inhibition of biochemical activity), IC50
T1 construct: (residues 1-306 with N-terminal GST and His tag; ID NO: 2); purchased Signal Chem U02-11G
Method in brief: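 Continuous PK/LDH-coupled NADH oxidation assay (A340) with 1 nM ULK2, 200 μM ULKtide and 1 mM ATP in Tris pH 7.5, 15 mM MgCl2, 1% DMSO, read 6 h at 30° C. Rates from the 2-3 h window converted to percent inhibition against no-compound and known-inhibitor controls; IC50 by four-parameter sigmoidal fit.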

[1] = tested on: ULK kinase substrate ATG13 (pS318-ATG13) in MiaPaCa-2 cells; assay: pATG13 levels of mutant KRas MiaPaCa-2 cells after treatment with ULK inhibitors in combination with trametinib (ELISA); assay type: cell-based, human
Procedure: pATG13 Levels of Mutant KRas MiaPaCa-2 Cells after Treatment with ULK Inhibitors in Combination with Trametinib
MiaPaCa-2 human pancreatic cancer cells (10000 cells/well) were added to a 384-well tissue-culture treated plate in 50 μL of pre-warmed DMEM medium supplemented with 10% characterized fetal bovine serum (Invitrogen, Carlsbad, CA), 100 units/mL penicillin G, 100 μg/mL streptomycin, and 2.5% Horse Serum and allowed to grow overnight at 37° C., 5% CO2, and 95% humidity. The following day, 10 μL of media containing trametinib or DMSO as a control was added to wells. The final concentration of trametinib in wells was 250 nM. A dose response of a test compound (0.6 μL per well) was added. DMSO (0.6 μL) was added to control wells. The plate was briefly shaken to mix wells and then incubated at 37° C. overnight. The next day, the media was aspirated and cells were washed with Dulbecco's Phosphate Buffered Saline (Gibco). Cells were lysed using MPER lysis buffer (Pierce, Rockford, IL) containing Halt Phosphatase and Protease Inhibitors (Pierce, Rockford, IL) and Phosphatase inhibitor cocktail 2 (Sigma, St. Louis, MO) at 4° C. for 10 minutes with shaking.
Cellular levels of phospho-Serine 318 ATG13 (pATG13) were measured via an ELISA method. Total ATG13 Antibody (Cell Signaling Cat #13273) was used to coat the wells. The plate was incubated at 4° C. overnight and washed with ELISA wash buffer (Biolegend Cat #421601). The wells were then blocked with assay diluent (Biolegend Cat #421203) for 1 h at rt. Plate wells were washed with ELISA wash buffer. Cell lysate was added to wells and incubated at rt for 2 h. Plate wells were washed with ELISA wash buffer. Biotinylated pS318-ATG13 antibody (Rockland Immunochemicals Cat #600-401-C49) was diluted in assay diluent and added to each well and incubated at rt for 1 h. Plate wells were washed with ELISA wash buffer. Streptavidin linked to horseradish peroxidase (Thermo Fisher Cat #21140) was diluted in assay diluent and added to each well and incubated at rt for 1 h. Plate wells were washed with ELISA wash buffer. High sensitivity TMB substrate (Biolegend Cat #421101) was added to each well and incubated at rt for 20 min. The reaction was stopped with 2.0N sulfuric acid. The plate was analyzed at on a plate reader measuring absorbance at 450 nm and 540 nm (background). Signal was calculated by first subtracting the background absorbance at 540 nm from the absorbance at 450 nm for each well. Next, the background corrected absorbance at 450 nm from blank wells was subtracted from test wells. Data was compared to control wells to determine % ATG13 phosphorylation. GraphPad Prism was used to calculate IC50 values.

T1 sequence (Q8IYT8 with tags, fused parts or gaps): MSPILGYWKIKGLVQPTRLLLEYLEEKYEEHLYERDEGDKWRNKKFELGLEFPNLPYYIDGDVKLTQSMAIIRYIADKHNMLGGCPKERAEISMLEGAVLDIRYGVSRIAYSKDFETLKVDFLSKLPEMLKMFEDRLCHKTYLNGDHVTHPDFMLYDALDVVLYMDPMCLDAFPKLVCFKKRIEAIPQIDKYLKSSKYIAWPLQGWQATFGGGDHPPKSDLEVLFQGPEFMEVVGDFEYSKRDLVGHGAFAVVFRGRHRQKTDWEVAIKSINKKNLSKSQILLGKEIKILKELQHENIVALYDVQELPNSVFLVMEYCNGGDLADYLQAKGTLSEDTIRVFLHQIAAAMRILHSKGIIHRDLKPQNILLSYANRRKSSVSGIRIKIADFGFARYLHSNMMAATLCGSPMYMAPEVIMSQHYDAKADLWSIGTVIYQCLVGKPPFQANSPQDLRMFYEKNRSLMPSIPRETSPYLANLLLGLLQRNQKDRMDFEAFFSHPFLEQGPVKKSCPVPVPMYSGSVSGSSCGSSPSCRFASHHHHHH

SMILES	IC50 (ULK2 kinase) [nM]	IC50 [1] [nM]
CC/C(Nc1cnn(C2CCN(C(C)C)CC2)c1)=C1/C(=O)Nc2ccc(C(=O)NCC3CCC(C4CC4)O3)cc21 (stereo not shown) [Example 3, (Z)—N-((5-cyclopropyltetrahydrofuran-2-yl)methyl)-3-(1-((1-(1-isopropylpiperidin-4-yl)-1H-pyrazol-4-yl)amino)propylidene)-2-oxoindoline-5-carboxamide]	100 to 500	100 to 300
CC/C(Nc1cnn(C(C)C)c1)=C1/C(=O)Nc2ccc(C(=O)NCC3(C)COC3)cc21 [Example 5, (Z)-3-(1-((1-isopropyl-1H-pyrazol-4-yl)amino)propylidene)-N-((3-methyloxetan-3-yl)methyl)-2-oxoindoline-5-carboxamide]	100 to 500	100 to 300
CC/C(Nc1cnn(C2CCN(C(C)C)CC2)c1)=C1/C(=O)Nc2ccc(C(=O)N(C)CC(F)(F)F)cc21 [Example 7]	10 to 100	≤ 100
CC/C(Nc1cnn(C2CCN(C(C)C)CC2)c1)=C1/C(=O)Nc2ccc(C(=O)N(C)CCOC)cc21 [Example 9]	–	100 to 300
CC/C(Nc1cnn(C2CCN(C(C)C)CC2)c1)=C1/C(=O)Nc2ccc(C(=O)NCC(C)C)cc21 [Example 16]	10 to 100	≤ 100
CC/C(Nc1cnn(C2CCN(C(C)C)CC2)c1)=C1/C(=O)Nc2ccc(C(=O)NCC3CCO3)cc21 (stereo not shown) [Example 21]	10 to 100	≤ 100
CC/C(Nc1cnn(C2CCN(C(C)C)CC2)c1)=C1/C(=O)Nc2ccc(C(=O)NCC(C)(C)OC)cc21 [Example 27]	100 to 500	≤ 100
CC/C(Nc1cnn(C2CCN(C(C)C)CC2)c1)=C1/C(=O)Nc2ccc(C(=O)NCC(C)(C)O)cc21 [Example 28]	10 to 100	≤ 100
CC/C(Nc1cnn(C2CCN(C(C)C)CC2)c1)=C1/C(=O)Nc2ccc(C(=O)NC3CC(F)(F)C3)cc21 [Example 29]	10 to 100	≤ 100
CC/C(Nc1cnn(C2CCN(C(C)C)CC2)c1)=C1/C(=O)Nc2ccc(C(=O)NCC3CC(F)(F)C3)cc21 [Example 30]	≤ 10	≤ 100
CC/C(Nc1cnn(C2CCN(C(C)C)CC2)c1)=C1/C(=O)Nc2ccc(C(=O)NCC3CC3)cc21 [Example 42]	10 to 100	≤ 100
CC/C(Nc1cnn(C2CCN(C(C)C)CC2)c1)=C1/C(=O)Nc2ccc(C(=O)NCC3CCCC3)cc21 [Example 44]	≤ 10	≤ 100
CC/C(Nc1cnn(C2CCN(C)CC2)c1)=C1/C(=O)Nc2ccc(C(=O)NC[C@H]3CCCO3)cc21 [Example 51]	10 to 100	≤ 100
CC/C(Nc1cnn(C2CC3CCC(C2)N3C)c1)=C1/C(=O)Nc2ccc(C(=O)NC[C@H]3CCCO3)cc21 (stereo partly shown) [Example 53]	10 to 100	≤ 100
CC/C(Nc1ccc(N2CC3CC(C2)N3C)cc1)=C1/C(=O)Nc2ccc(C(=O)NCC(F)(F)F)cc21 [Example 60]	10 to 100	≤ 100
CC/C(Nc1ccc(N2C[C@H]3CN(C)C[C@H]3C2)cc1)=C1/C(=O)Nc2ccc(C(=O)NCC(F)(F)F)cc21 [Example 61]	10 to 100	≤ 100
CC/C(Nc1ccc(N2CCN(C(C)C)CC2)cc1)=C1/C(=O)Nc2cc(F)c(C(=O)NCC(F)(F)F)cc21 [Example 100]	100 to 500	100 to 300
C/C(Nc1cnn(C(C)C)c1)=C1/C(=O)Nc2ccc(C(=O)NCC(F)(F)F)cc21 [Example 101]	10 to 100	≤ 100
CC/C(Nc1cnn(CCOC)c1)=C1/C(=O)Nc2ccc(C(=O)NCC(F)(F)F)cc21 [Example 102]	10 to 100	≤ 100
CC/C(Nc1cnn(CCN(C)C)c1)=C1/C(=O)Nc2ccc(C(=O)NCC(F)(F)F)cc21 [Example 103]	10 to 100	≤ 100
CC/C(Nc1cnn([C@@H]2CCOC2)c1)=C1/C(=O)Nc2ccc(C(=O)NCC(F)(F)F)cc21 [Example 105]	10 to 100	≤ 100
CC/C(Nc1cnn(C2CCOCC2)c1)=C1/C(=O)Nc2ccc(C(=O)NCC(F)(F)F)cc21 [Example 106]	10 to 100	≤ 100

SMILES	IC50 (ULK2 kinase) [nM]	IC50 [1] [nM]
CC/C(Nc1cn(C(C)C)nn1)=C1/C(=O)Nc2ccc(C(=O)NCC(F)(F)F)cc21 [Example 122]	10 to 100	100 to 300
CC/C(Nc1cccnc1)=C1/C(=O)Nc2ccc(C(=O)NCC(F)(F)F)cc21 [Example 124]	> 500	300 to 600
CC/C(Nc1cnn(C(C)C)c1)=C1/C(=O)Nc2ccc(C(=O)NCCOC)cc21 [Example 126]	100 to 500	100 to 300
CC/C(Nc1cnn(C(C)C)c1)=C1/C(=O)Nc2ccc(C(=O)NCCC#N)cc21 [Example 127]	10 to 100	100 to 300
CC/C(Nc1cnn(C(C)C)c1)=C1/C(=O)Nc2ccc(C(=O)NC[C@@H](C)OC)cc21 [Example 128]	100 to 500	300 to 600
CC/C(Nc1cnn(C(C)C)c1)=C1/C(=O)Nc2ccc(C(=O)NCC3CC(F)(F)C3)cc21 [Example 134]	10 to 100	≤ 100
CC/C(Nc1cnn(C(C)C)c1)=C1/C(=O)Nc2ccc(C(=O)NCC3CCC4(CCC4)O3)cc21 (stereo not shown) [Example 138]	100 to 500	300 to 600
CC/C(Nc1cnn(C2CC(F)(F)C2)c1)=C1/C(=O)Nc2ccc(C(=O)NCC(F)(F)F)cc21 [Example 144]	10 to 100	≤ 100
CC/C(Nc1ccccn1)=C1/C(=O)Nc2ccc(C(=O)NCC(F)(F)F)cc21 [Example 145]	100 to 500	100 to 300
CC/C(Nc1cnn(C(F)F)c1)=C1/C(=O)Nc2ccc(C(=O)NCC(C)C)cc21 [Example 147]	100 to 500	≤ 100
CC/C(Nc1cnn(C(C)C)c1)=C1/C(=O)Nc2ccc(C(=O)NCC(C)(C)OC)cc21 [Example 148]	100 to 500	100 to 300
CC/C(Nc1cc(C(F)(F)F)ccn1)=C1/C(=O)Nc2ccc(C(=O)NCC(F)(F)F)cc21 [Example 149]	10 to 100	100 to 300
CC/C(Nc1cnn(CC)c1)=C1/C(=O)Nc2ccc(C(=O)NCC3(F)CC3)cc21 [Example 153]	≤ 10	≤ 100
CC/C(Nc1cnn(C(C)C)c1)=C1/C(=O)Nc2ccc(C(=O)NCC3(C#N)CC3)cc21 [Example 156]	10 to 100	≤ 100
CC/C(Nc1cnn(CC(C)OC)c1)=C1/C(=O)Nc2ccc(C(=O)NCC(F)(F)F)cc21 (stereo not shown) [Example 157]	100 to 500	≤ 100
CC/C(Nc1cnn(CC(C)OC)c1)=C1/C(=O)Nc2ccc(C(=O)NCC(F)(F)F)cc21 (stereo not shown) [Example 158]	100 to 500	100 to 300
CC/C(Nc1cnn(C(C)CC)c1)=C1/C(=O)Nc2ccc(C(=O)NCC(F)(F)F)cc21 (stereo not shown) [Example 159]	10 to 100	≤ 100
CC/C(Nc1cnn(CC(F)(F)F)c1)=C1/C(=O)Nc2ccc(C(=O)NCC(C)(C)F)cc21 [Example 160]	10 to 100	≤ 100
CC/C(Nc1cnn(C(C)C)c1)=C1/C(=O)Nc2ccc(C(=O)NCCC(F)(F)F)cc21 [Example 166]	≤ 10	≤ 100
CC/C(Nc1cnn(C(C)C)c1)=C1/C(=O)Nc2ccc(C(=O)NCC3(C)CCOC3)cc21 (stereo not shown) [Example 168]	10 to 100	100 to 300
CC/C(Nc1cnn(C(F)(F)F)c1)=C1/C(=O)Nc2ccc(C(=O)NCC(C)C)cc21 [Example 169]	10 to 100	100 to 300
